Results from ChEMBL document CHEMBL6182945, “MMAE-Based Peptide-Drug Conjugates Targeting GPC3 for Precision Chemoradiotherapy in Hepatocellular Carcinoma” (J Med Chem, 2025).
Starred links: 1 amine or outer side, 2 acyl side, 3 side chain; linkers in the order of their positions; H or OH if unused. Positions of bridges follow the written chain, without caps; N, C: chain ends. Non-standard residues stand in square brackets, D forms with d. Residues, ends and D or L forms follow the SMILES beside them. Chains are numbered I, II in the order given. *: point of attachment. X2 = CC[C@H](C)[C@@H]([C@@H](CC(=O)N1CCC[C@H]1[C@H](OC)[C@@H](C)C(=O)N[C@H](C)[C@H](O)c1ccccc1)OC)N(C)[C@H](C(=O)NC(=O)[C@H](C(C)C)N(C)C(=O)OCc1ccc(NC(=O)[C@H](CCCNC(N)=O)NC(=O)[C@@H](NC(=O)CCCCCN2C(=O)CC(*)C2=O)C(C)C)cc1)C(C)C; Hexanoyl(6-succinimido-3yl) = O=C1CC([*:1])C(=O)N1CCCCCC(=O)[*:2]; Dolaproine = CO[C@@H]([C@@H]1CCCN1)[C@@H](C)C(=O)O; Dil = CC[C@H](C)[C@H](NC)[C@@H](CC(=O)O)OC; PABC = O=C(OCc1ccc(N[*:1])cc1)[*:2]; X1 = C[C@@H](N*)[C@@H](O)c1ccccc1; Cit = NC(=O)NCCC[C@H](N)C(=O)O; NMeV = CN[C@H](C(=O)O)C(C)C

What was measured:
Type in all cases: functional, cell-based
[1] = system: LX-2; assay: Antiproliferative activity against GPC3-negative human LX-2 cells assessed as cytotoxicity measured after 72 hrs by MTT assay; settings: LX-2, 72 h
[2] = system: Huh-7; assay: Antiproliferative activity against GPC3-positive human Huh-7 cells assessed as cytotoxicity measured after 72 hrs by MTT assay; settings: Huh-7, 72 h
[3] = system: HeLa; assay: Antiproliferative activity against GPC3-negative human HeLa cells assessed as cytotoxicity measured after 72 hrs by MTT assay
[4] = system: Hep 3B2; assay: Antiproliferative activity against GPC3-positive human Hep3B cells assessed as cytotoxicity measured after 72 hrs by MTT assay

In the case of `CC[C@H](C)[C@@H]([C@@H](CC(=O)N1CCC[C@H]1[C@H](OC)[C@@H](C)C(=O)N[C@H](C)[C@@H](O)c1ccccc1)OC)N(C)C(=O)[C@@H](NC(=O)[C@H](C(C)C)N(C)C(=O)OCc1ccc(NC(=O)[C@H](CCCNC(N)=O)NC(=O)[C@@H](NC(=O)CCCCCN2C(=O)CC(SC[C@H](N)C(=O)N[C@@H](CC(=O)O)C(=O)N[C@@H](Cc3ccc(O)cc3)C(=O)N[C@@H](CCC(=O)O)C(=O)N[C@@H](CCSC)C(=O)N[C@@H](Cc3cnc[nH]3)C(=O)N[C@@H](CC(C)C)C(=O)N[C@@H](Cc3c[nH]c4ccccc34)C(=O)N[C@@H](Cc3c[nH]c4ccccc34)C(=O)NCC(=O)N[C@H](C(=O)N[C@@H](CCC(=O)O)C(=O)N[C@@H](CC(C)C)C(N)=O)[C@@H](C)O)C2=O)C(C)C)cc1)C(C)C` (stereo partly specified) (I: H-CDYEMHLWWGTEL-NH2 / II: V[Cit][PABC][NMeV]V[Dil][Dolaproine]-X1; linker I:1-II:N via Hexanoyl(6-succinimido-3yl)), the IC50 [1] is reported as 58.1 nM, the IC50 [2] is reported as 41.5 nM and the IC50 [3] is reported as > 100 nM. The IC50 [4] was > 100 nM.

In the case of `CC[C@H](C)[C@@H]([C@@H](CC(=O)N1CCC[C@H]1[C@H](OC)[C@@H](C)C(=O)N[C@H](C)[C@@H](O)c1ccccc1)OC)N(C)C(=O)[C@@H](NC(=O)[C@H](C(C)C)N(C)C(=O)OCc1ccc(NC(=O)[C@H](CCCNC(N)=O)NC(=O)[C@@H](NC(=O)CCCCCN2C(=O)CC(SC[C@H](N)C(=O)N[C@@H](CC(=O)O)C(=O)N[C@@H](Cc3cnc[nH]3)C(=O)N[C@@H](CC(C)C)C(=O)N[C@@H](C)C(=O)N[C@@H](CO)C(=O)N[C@@H](CC(C)C)C(=O)N[C@@H](Cc3c[nH]c4ccccc34)C(=O)N[C@@H](Cc3c[nH]c4ccccc34)C(=O)NCC(=O)N[C@H](C(=O)N[C@@H](CCC(=O)O)C(=O)N[C@@H](CC(C)C)C(N)=O)[C@@H](C)O)C2=O)C(C)C)cc1)C(C)C` (stereo partly specified) (I: H-CDHLASLWWGTEL-NH2 / II: V[Cit][PABC][NMeV]V[Dil][Dolaproine]-X1; linker I:1-II:N via Hexanoyl(6-succinimido-3yl)), the IC50 [1] is reported as > 100 nM, the IC50 [2] is reported as > 100 nM and the IC50 [3] is reported as > 100 nM. For the same molecule, the IC50 [4] was > 100 nM.

In the case of `CC[C@H](C)[C@@H]([C@@H](CC(=O)N1CCC[C@H]1[C@H](OC)[C@@H](C)C(=O)N[C@H](C)[C@H](O)c1ccccc1)OC)N(C)[C@H](C(=O)NC(=O)[C@H](C(C)C)N(C)C(=O)OCc1ccc(NC(=O)[C@H](CCCNC(N)=O)NC(=O)[C@@H](NC(=O)CCCCCN2C(=O)CC(SC[C@H](N)C(=O)N[C@H](C(=O)N[C@@H](Cc3cnc[nH]3)C(=O)N[C@H](C(=O)N[C@@H](CO)C(=O)N3CCC[C@H]3C(=O)N[C@@H](CC(N)=O)C(=O)N[C@@H](CCC(N)=O)C(=O)NCC(=O)NCC(=O)N[C@@H](CC(C)C)C(=O)N3CCC[C@H]3C(=O)N[C@@H](CO)C(=O)O)C(C)C)[C@@H](C)O)C2=O)C(C)C)cc1)C(C)C` (stereo partly specified) (H-C(X2)THVSPNQGGLPS-OH), the IC50 [1] is reported as 48.9 nM, the IC50 [2] is reported as 40 nM and the IC50 [3] is reported as > 100 nM. For the same molecule, the IC50 [4] was > 100 nM.

`CC[C@H](C)[C@@H]([C@@H](CC(=O)N1CCC[C@H]1[C@H](OC)[C@@H](C)C(=O)N[C@H](C)[C@@H](O)c1ccccc1)OC)N(C)C(=O)[C@@H](NC(=O)[C@H](C(C)C)N(C)C(=O)OCc1ccc(NC(=O)[C@H](CCCNC(N)=O)NC(=O)[C@@H](NC(=O)CCCCCN2C(=O)CC(SC[C@H](N)C(=O)N[C@@H](CCCNC(=N)N)C(=O)N[C@@H](CC(C)C)C(=O)N[C@@H](CC(N)=O)C(=O)N[C@H](C(=O)NCC(=O)NCC(=O)N[C@H](C(=O)N[C@@H](Cc3ccc(O)cc3)C(=O)N[C@@H](Cc3ccccc3)C(=O)N[C@@H](CC(C)C)C(=O)N[C@H](C(=O)N[C@H](C(=O)N[C@@H](CCCNC(=N)N)C(=O)N[C@@H](CCC(N)=O)C(N)=O)[C@@H](C)O)[C@@H](C)O)[C@@H](C)O)C(C)C)C2=O)C(C)C)cc1)C(C)C` (stereo partly specified) (I: H-CRLNVGGTYFLTTRQ-NH2 / II: V[Cit][PABC][NMeV]V[Dil][Dolaproine]-X1; linker I:1-II:N via Hexanoyl(6-succinimido-3yl)) gave an IC50 [1] of 30.8 nM, an IC50 [2] of 67.9 nM and an IC50 [3] of 70.4 nM. For the same molecule, the IC50 [4] was 81.2 nM.
